Earlier results as cited in US11160765B2, “Compositions and methods of treating fungal infections of the nails” (KBR Incorporated, priority 2018, dated 2021).

System: Candida albicans

Structure (SMILES) | proteinase, phospholipase secretion, and dimorphism in Candida albicans
C=CCSSCC=C [diallyl disulphide (DADS0, diallyl disulphide] | significantly inhibit
C=CCSCC=C [diallyl sulphide (DAS), diallyl sulphide] | significantly inhibit
